Laboratory results from patent US12311011B2, “Des-acyl ghrelin and analogs as cancer therapies” (Cornell University, priority 2018, dated 2025).
Where no end group is shown, it is not given here. The star is where a group is joined. Octanoyl = CCCCCCCC(=O)*

Tests used:
[1] = test system: MDA-MB-468 cells; assay: 3D/2D cell growth assay (cell number, Hoechst); format: cell-based, human; conditions: for cell growth in the presence of serum: 0.05-5 μM MK2206, 0.1-10 μM BKM120; for growth of MDA-MB-468 cells: 60 nM KT5720, 1.4 μM SQ22536, 15 μM cAMPs-RP; for forskolin-stimulated cell growth: 10 μM forskolin
Experimental: (§1) Human BC Cells. Human breast cancer cell lines, MCF7, T47D, ZR75, MDA-MB-231, MDA-MB-468, SKBR3, Hs578T and HEK293T, DU4475 and MDA-MB-157 were purchased from ATCC, USA. Human 4-OH tamoxifen resistant breast cancer cells (LCC2), RKO, RKO-T29, RKO-A19, HCT116, HCT116-HWT, HCT116-HMUT were cultured using methods were performed as described previously (Yun et al., Science 325(5947):1555-9 (2009)). MCF7, MDA-MB-231, MDA-MB-468, MDA-MB-157, Hs578T, HEK293T were grown in DMEM (Invitrogen), supplemented with 10% fetal calf serum (FCS) (Invitrogen), 100U/ml penicillin/streptomycin and 1% sodium pyruvate. ZR75, T47D, SKBR3 and DU4475 were grown in RPMI, supplemented with 10% FCS, 100 U/ml penicillin/streptomycin and 2 mM L-Glutamine (ThermoFisher Scientific). LCC2 were grown in phenol red-free DMEM, supplemented with 10% charcoal stripped serum (CCS; ThermoFisher Scientific), 100 U/ml penicillin/streptomycin and 1% sodium pyruvate. All cell lines were grown at 37° C. with 5% CO2 in a humidified environment. Mycoplasma detection of all cell lines were tested and negative results were observed.
(§2) Cell Growth and Proliferation Assays. 3D culture of a panel of breast cancer and colon cancer cells were seeded at a density of 3,000 cells per well in media containing 30% growth-factor-reduced matrigel or 5 mg/ml Collagen in optical-bottom 96-well plates. Patient-derived breast tumors were first dissociated into single cell suspensions and seeded at a density of 32,000 cells per well in media containing 30% matrigel. […] At the end of the experimental time point, cells were fixed in 100% methanol. The total number of cells, or the number of dead or proliferating cells was assessed using Hoechst, EarlyTox Dead Assay Kit (Molecular Devices), or Click-IT EdU Kit (ThermoFisher Scientific), respectively, and analyzed according to the manufacturer's protocols. Cells were then imaged with >95% well coverage (magnification of 10× with 3×3 tiled images) per field using confocal microscopy. The number of nuclei/Ethidium Homodimer-III+/EdU+ cells were counted using Imaris software (Bitplane).

[2] = test system: MDA-MB-231 cells; assay: 3D/2D cell growth assay (cell number, Hoechst); format: cell-based, human; conditions: for cell growth in the presence of serum: 0.05-5 μM MK2206, 0.1-10 μM BKM120; for forskolin-stimulated cell growth: 10 μM forskolin, 3D
[3] = test system: MCF7 cells; assay: 3D/2D cell growth assay (cell number, Hoechst); format: cell-based, human; conditions: for serum-stimulated growth (cell number): 60 nM KT5720, 1.4 μM SQ22536, 15 μM cAMPs-RP
Experimental: as §1, §2

[4] = test system: ERK activity in EKAR-transfected MCF7 cells; assay: ERK activity assay (EKAR FRET reporter); format: cell-based, human; conditions: 10% serum; 3D; time-lapse confocal
Experimental: ERK Activity Assay: The EKAR FRET-based system was used to monitor ERK activity. Briefly, breast cancer cells were co-transfected with pPBJ-puro-FRET3-EKAR-nls and the pCMV-hyPBase transposase vector, and stably transfected cells selected using FACS for EYFP and ECFP-positive cells. Cells were then cultured in 3D and serum-starved overnight. Prior live cell time-lapse confocal imaging, medium was replaced with 100 pM unacylated ghrelin and 10% serum. Images were acquired following FRET and analyzed using Imaris software. Data normalized to ECFP signal.

[5] = test system: MCF7, MDA-MB-468 and MDA-MB-231 cells; assay: Cy3-tagged UAG binding assay in 3D cultures; set-up: species or system human; conditions: 1 μM Cy3-tagged UAG with 10% serum; live confocal imaging
Experimental: Binding Assays. Cy3-tagged UAG (Pepmic Co, LtD) binding assays were performed in 3D cultures of breast cancer cells. MCF7, […] and MDA-MB231 cells were seeded at a density of 3,000 cells per well in Matrigel in optical-bottom 96-well plates. Cells were serum-starved overnight. Hoechst nuclear stain was added prior to the live cell imaging. 1 μM Cy3-tagged UAG with 10% serum was then added and time-lapse confocal imaging was performed to examine the localization of peptide binding.

[6] = test system: panel of breast cancer cell lines; assay: 3D cell growth assay in a panel of breast cancer cell lines; format: cell-based, human; conditions: 100 pM
Experimental: as §1, with “All cell lines were grown at 37° C. with 5% CO2 in a humidified environment. Mycoplasma detection of all cell lines were tested and negative results were observed.” left out
Cell Growth and Proliferation Assays. […] The total number of cells, or the number of dead or proliferating cells was assessed using Hoechst, EarlyTox Dead Assay Kit (Molecular Devices), or Click-IT EdU Kit (ThermoFisher Scientific), respectively, and analyzed according to the manufacturer's protocols. […] The number of nuclei/Ethidium Homodimer-III+/EdU+ cells were counted using Imaris software (Bitplane).

[7] = test system: patient-derived breast cancer cells; assay: 3D growth of patient-derived breast cancer cells; format: cell-based, human
Text: Human BC Tissues and Preclinical Patient Derived Xenograft Models. Patient-derived breast tumors (PDX, (Zhang, et al., Cancer Res 15:4885-97 (2013)) and estrogen receptor positive (ER^+) breast tumors were used under IRB-approved protocols (WCM 1410015560 and 1603017108). All patients provided written informed consent. Cells were isolated and maintained in DMEM, supplemented with 10% fetal calf serum (FCS), 100U/ml penicillin/streptomycin and 1% sodium pyruvate (ThermoFisher Scientific). Cells were grown at 37° C. in a humidified atmosphere with 5% CO2. See Method Details for cell growth and proliferation work specific procedures.
as §2

[8] = Allas et al. 2016; cited from earlier work
[9] = test system: J110 allografts; assay: Syngeneic allograft in FVB/N mice; format: in vivo, mouse; conditions: AZP531 200 μg/kg s.c.; 7 days; FVB mice
Experimental: (§3) Animal Experimental Model. All animal experiments were performed in Monash Animal Research Platform at Hudson Institute for Medical Research and Research Animal Resource Center at Weill Cornell Medicine. Experimental procedures were in accordance with guidelines for Animal Care and Use, approved by Monash University Animal Ethics Committee (MMCA2014/20) and Weill Cornell Medicine IACUC Protocol (REQ00016929). Athymic Balb/c nude, FVB/N (Animal Resources Centre, Australia) and NSG (NOD Scid gamma; NOD.CgPrkdcscidIl2rgtmlwjl/SzJ) mice (The Jackson laboratory and Monash Breeding Colony platform) were used for this study. All mouse procedures were performed with 6-8 weeks old female mice and treatments administered via subcutaneous injection. See additional details included herein for specific in vivo experimental procedures.
A syngeneic breast cancer mouse model was created in female FVB/N mice. 1.25×10^5 J110 cells were injected into the mammary fat pad of 6-week old FVB (Immunocompetent) mice. […]
Measurement of Apoptotic Cells from Xenograft/Allograft Studies. MCF7, ZR75 and J110 tumor sections post treatment with 100 μg/kg or 200 μg/kg of unacylated ghrelin were assessed using Hoechst nuclear stain and confocal microscopy. Quantification of cells with apoptotic nuclei was performed using Image J.

[10] = test system: MDA-MB-468 xenografts; assay: Xenograft in NSG mice; format: in vivo, mouse; conditions: 200 μg/kg s.c., 28 days
Experimental: as §3
Additional studies were also performed in NSG mice. MDA-MB-468 (1×10^6) were injected into the mammary fat pad of 6-week old NSG (immunodeficient) mice. Once the tumor reached a volume of 150 mm^3, the mice were randomized to receive saline (vehicle control) or AZP531 via subcutaneous injection. After 28 days of treatment, the mice were humanely sacrificed by cervical dislocation.

Nc1cc(C(F)(F)F)c(-c2cc(N3CCOCC3)nc(N3CCOCC3)n2)cn1 [BKM120]
cell growth in the presence of serum ([1]; serum): inhibited
cell growth in the presence of serum [2]: inhibited

CCCCCCOC(=O)[C@]1(O)C[C@@H]2O[C@@]1(C)n1c3ccccc3c3c4c(c5c6ccccc6n2c5c31)C(=O)NC4 [KT5720]
growth of MDA-MB-468 cells [1]: suppress the growth
serum-stimulated growth (cell number) ([3]; serum): significant reduction in cell number

NC1(c2ccc(-c3nc4ccn5c(=O)[nH]nc5c4cc3-c3ccccc3)cc2)CCC1 [MK2206]
forskolin-stimulated cell growth ([1]; 3D): inhibit
cell growth in the presence of serum ([1]; serum): inhibited
forskolin-stimulated cell growth [2]: inhibit
cell growth in the presence of serum [2]: inhibited

Nc1ncnc2c1ncn2C1CCCO1 (stereo not shown) [SQ22536]
growth of MDA-MB-468 cells [1]: suppress the growth
serum-stimulated growth (cell number) ([3]; serum): significant reduction in cell number

N#CC(=C(/N)Sc1ccccc1N)/C(C#N)=C(\N)Sc1ccccc1N [U0126]
serum-stimulated EKAR (ERK) activity [4]: inhibited
forskolin-stimulated cell growth ([1]; 3D): significant reduction
forskolin-stimulated cell growth ([3]; 10 μM forskolin, 3D): significant reduction
forskolin-stimulated cell growth [2]: significant reduction

Nc1ncnc2c1ncn2[C@@H]1O[C@@H]2CO[P@@](O)(=S)O[C@H]2[C@H]1O [cAMPS-RP]
growth of MDA-MB-468 cells [1]: suppress the growth
serum-stimulated growth (cell number) ([3]; serum): significant reduction in cell number

Cy3-labeled unacylated ghrelin: Cy3-tagged UAG (Pepmic Co, LtD) used for binding assays (GSSFLSPEHQRVQQRKESKKPPAKLQP; also: Cy3 label, position not given here; UniProt Q9UBU3 24-50, looked up)
binding to responsive and non-responsive cells [5]: Binding

GSS(n-octanoyl)FLSPEHQRVQQRKESKKPPAKLQPR (GSS(Octanoyl)FLSPEHQRVQQRKESKKPPAKLQPR) [acyl ghrelin]
breast cancer cell growth in serum-stimulated conditions (FIG. 15G) [6]: inhibited breast cancer cell growth

SPEHQRVQ (also: cyclic, ring type not given here) [AZP531]
serum-stimulated growth of patient-derived TNBC cells ([7]; dose-response): dose-dependent inhibition
potency compared to doxorubicin ([7]; patient-derived TNBC cells, serum): greater potency than doxorubicin
extent of cell number reduction ([7]; patient-derived TNBC cells, serum, unlike doxorubicin): did not reduce cell number beyond that which was stimulated by serum
pharmacokinetic properties relative to unacylated ghrelin [8]: better pharmacokinetic properties than unacylated ghrelin
safety profile [8]: established safety profile
potency compared to doxorubicin ([1]; 3D, serum): greater potency than doxorubicin
serum-stimulated growth of cells ([1]; 3D, serum, dose-response): dose-dependent inhibition
extent of cell number reduction ([1]; 3D, serum, unlike doxorubicin): did not reduce cell number beyond that which was stimulated by serum
potency compared to doxorubicin ([3]; 3D, serum): greater potency than doxorubicin
serum-stimulated growth of cells ([3]; 3D, serum, dose-response): dose-dependent inhibition
extent of cell number reduction ([3]; 3D, serum, unlike doxorubicin): did not reduce cell number beyond that which was stimulated by serum
tumor cell growth (tumor volume) [9]: suppression of cell growth
tumor cell growth (tumor volume) [10]: suppression of cell growth
